From US20220008447A1, “Rosacea Treatment Method” (priority 2019, published 2022)

Experiments:
[1] = test system: rosacea; conditions: cited from earlier work
[2] = test system: patient with rosacea; test: Application b.i.d. of other Delphinidin topical formulations to the face of a rosacea patient (Examples 11-13, present tense); format: in vivo, human
Source text: A topical gel is made with delphinidin 3,5-O-diglucoside 7% (w/w) in a standard cosmetic disappearing gel base. Application b.i.d. to the face of a patient with lupus-related rosacea, for at least about one month alleviates lupus-related skin inflammation and the patient maintains normal, healthy skin. A topical cream is made with delphinidin 6% (w/w) in a standard cosmetic lipophilic cream base. […] A topical cream is made with delphinidin 3-O-sambubioside 5-O-glucoside 3% (w/w) in a standard cosmetic disappearing cream base. Application b.i.d. to the face of a patient with papulopustular rosacea with transient, central face pustules for two months reduces central facial erythema and eliminates transient central face pustules.

[3] = Example 13, 3% (w/w) disappearing cream, papulopustular rosacea, two months

CC[C@H]1OC(=O)[C@H](C)[C@@H](O[C@H]2C[C@@](C)(OC)[C@@H](O)[C@H](C)O2)[C@H](C)[C@@H](O[C@@H]2O[C@H](C)C[C@H](N(C)C)[C@H]2O)[C@](C)(O)C[C@@H](C)CN(C)[C@H](C)[C@@H](O)[C@]1(C)O [Azithromycin]
efficacy compared with 100 mg doxycycline ([1]; only one study): may be as effective as 100 mg doxycycline

O=C(O)CCCCCCCC(=O)O [azelaic acid]
reducing rosacea symptoms ([1]; prior-art treatment): effective and safe | side effects ([1]; prior-art treatment): caused mild burning, stinging or irritation | time until improvements appear ([1]; prior-art treatment): three to six

Brc1c(NC2=NCCN2)ccc2nccnc12 [brimonidine]
duration of effect on redness after being applied ([1]; prior-art treatment): up to 12 hours

OC[C@H]1O[C@@H](Oc2cc3c(O[C@@H]4O[C@H](CO)[C@@H](O)[C@H](O)[C@H]4O)cc(O)cc3[o+]c2-c2cc(O)c(O)c(O)c2)[C@H](O)[C@@H](O)[C@@H]1O [delphinidin 3,5-O-diglucoside]
lupus-related skin inflammation ([2]; Example 11, 7% (w/w) topical gel, lupus-related rosacea, at least about one month): alleviates

OC[C@H]1O[C@@H](Oc2cc(O)cc3[o+]c(-c4cc(O)c(O)c(O)c4)c(O[C@@H]4O[C@H](CO)[C@@H](O)[C@H](O)[C@H]4O[C@@H]4OC[C@@H](O)[C@H](O)[C@H]4O)cc23)[C@H](O)[C@@H](O)[C@@H]1O [delphinidin 3-O-sambubioside 5-O-glucoside]
central facial erythema [2, 3]: reduces | transient central face pustules [2, 3]: eliminates

Oc1cc(O)c2cc(O)c(-c3cc(O)c(O)c(O)c3)[o+]c2c1 [delphinidin, 2-(3,4,5-trihydroxyphenyl) chromenylium-3,5,7-triol]
flushing, persistent central facial erythema and telangiectasia ([2]; Example 12, 6% (w/w) lipophilic cream, erythematotelangiectatic rosacea, two weeks): measurably reduces

C[C@H]1c2cccc(O)c2C(=O)C2=C(O)[C@]3(O)C(=O)C(C(N)=O)=C(O)[C@@H](N(C)C)[C@@H]3[C@@H](O)[C@@H]21 [doxycycline]
side effects of low dose compared with 100 mg ([1]; low dose, 40 mg): much fewer side effects of diarrhea and nausea

CC1=C(/C=C/C(C)=C/C=C/C(C)=C\C(=O)O)C(C)(C)CCC1 [isotretinoin]
efficacy compared with doxycycline, pimples and pustules ([1]; low dose, 0.3 mg/kg): slightly more effective than 50-100 mg doxycycline

Cc1ncc([N+](=O)[O-])n1CCO [metronidazole]
reducing rosacea symptoms ([1]; prior-art treatment): effective and safe | side effects ([1]; prior-art treatment): very few people experienced mild itching, skin irritation and dry skin | time until improvements appear ([1]; prior-art treatment): three to six

Ivermectin
efficacy compared with placebo and metronidazole ([1]; prior-art treatment): more effective than placebo and slightly more effective than metronidazole
